Some test systems named below: SNB-19 CNS; MCF7 breast; SK-MEL-28 melanoma; UACC-62 melanoma; SF-539 CNS; OVCAR-4 ovarian; HCT-15 colon; SN12C renal; U251 CNS; OVCAR-8 ovarian.
Test in all cases: inhibition of tumour cell growth, NCI panel, 48 h

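Cells were grown in 96-well plates and exposed to each compound for 48 hours at five concentrations; endpoints were interpolated linearly between bracketing concentrations, or set to the highest concentration if not reached. Abbreviation: GI50, concentration required for 50% inhibition of growth. TGI denotes the concentration required for complete inhibition of growth.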 Some results are limits rather than exact numbers.

Consider `COc1ccc(/C=C\c2cc(OC)c(OC)c(OC)c2)cc1OCC(=O)Nc1nc2ccc(OC(F)(F)F)cc2s1`, for which the GI50 in the assay on SNB-19 CNS was 7.08 µM; in the assay with MCF7 breast, 2890 nM; with SK-MEL-28 melanoma, 4.57 µM; in the assay on UACC-62 melanoma, 5.11 µM; in the assay with SF-539 CNS it was 2280 nM; with OVCAR-4 ovarian, 5.34 µM. Further, the GI50 in the assay with HCT-15 colon was 3.23 µM; with SN12C renal, 6.42 µM; with U251 CNS, 3.37 µM; in the assay with OVCAR-8 ovarian, 5 µM. For the same molecule, the TGI in the assay with SNB-19 CNS is more than 100 µM; in the assay on MCF7 breast it was more than 100 µM; with SK-MEL-28 melanoma it was more than 100 µM; with UACC-62 melanoma it was more than 100 µM; in the assay with SF-539 CNS, 6.13 µM; with OVCAR-4 ovarian it was more than 100 µM. Moreover, the TGI in the assay on HCT-15 colon, in the assay with SN12C renal, in the assay on U251 CNS and in the assay with OVCAR-8 ovarian was more than 100 µM throughout.
As for `CCCCCCN1CCN(Cc2ccc(N(CC)CC)cc2)C(=O)C1=O`, the GI50 in the assay with SNB-19 CNS is 4.08 µM; with MCF7 breast, 580 nM; in the assay on SK-MEL-28 melanoma, 7.17 µM; in the assay on UACC-62 melanoma, 3.54 µM; in the assay on SF-539 CNS it was 2570 nM; in the assay with OVCAR-4 ovarian, 6.73 µM. Besides, the GI50 is 1.07 µM in the assay with HCT-15 colon, 5.19 µM with SN12C renal, 3.99 µM in the assay on U251 CNS and 5.42 µM in the assay on OVCAR-8 ovarian. Also, the TGI in the assay on SNB-19 CNS is more than 100 µM; in the assay with MCF7 breast it was 62.2 µM; in the assay with SK-MEL-28 melanoma it was more than 100 µM; in the assay on UACC-62 melanoma it was more than 100 µM; in the assay on SF-539 CNS, 8.23 µM; in the assay with OVCAR-4 ovarian, 79.6 µM. The TGI is more than 100 µM in the assay with HCT-15 colon, 93.9 µM in the assay on SN12C renal, 62.3 µM with U251 CNS and more than 100 µM in the assay with OVCAR-8 ovarian.
In the case of `Cc1ccc2nc(N/N=C/c3cccc(C)n3)cc(C)c2c1`, the TGI with SNB-19 CNS stood at 44.8 µM; in the assay with MCF7 breast, 32.5 µM; in the assay on SK-MEL-28 melanoma it was 33.2 µM; in the assay with UACC-62 melanoma, 29.8 µM; with SF-539 CNS it was 38.3 µM; in the assay with OVCAR-4 ovarian, 41.5 µM. Further, the TGI in the assay on HCT-15 colon was determined as 52.7 µM; in the assay with SN12C renal, 34.2 µM; in the assay on U251 CNS, 33.4 µM; in the assay with OVCAR-8 ovarian, 49.5 µM.
In the case of `NC1=C(Cl)C(=O)c2ccccc2C1=O`, the TGI in the assay on SNB-19 CNS stood at 24.2 µM; in the assay with MCF7 breast, 5.25 µM; in the assay on SK-MEL-28 melanoma, 11.3 µM; in the assay with UACC-62 melanoma it was 2.76 µM; with SF-539 CNS, 20.8 µM; in the assay with OVCAR-4 ovarian it was 15.9 µM. Besides, the TGI in the assay on HCT-15 colon was 12.2 µM; with SN12C renal it was 15.9 µM; in the assay on U251 CNS it was 13.9 µM; in the assay on OVCAR-8 ovarian, 27.8 µM.
`O=C1C=CC(=O)c2c1ncc1c2nc2sccn21`: the GI50 is 63.8 µM with SNB-19 CNS; 20600 nM with MCF7 breast; 22.9 µM in the assay on SK-MEL-28 melanoma; 21.8 µM in the assay on UACC-62 melanoma; 12400 nM in the assay with SF-539 CNS; 27.7 µM with OVCAR-4 ovarian. For the same molecule, the GI50 in the assay with HCT-15 colon is 17.9 µM; in the assay on SN12C renal, 23.3 µM; in the assay with U251 CNS, 18.3 µM; with OVCAR-8 ovarian, 30.5 µM. In addition, the TGI is more than 100 µM with SNB-19 CNS; more than 100 µM in the assay with MCF7 breast; 47.2 µM with SK-MEL-28 melanoma; 45.2 µM with UACC-62 melanoma; 42.4 µM in the assay with SF-539 CNS; 59.8 µM in the assay on OVCAR-4 ovarian. Besides, the TGI in the assay on HCT-15 colon is 39.5 µM; with SN12C renal, 48.3 µM; in the assay on U251 CNS, 43.9 µM; in the assay on OVCAR-8 ovarian, more than 100 µM.
As to `CN(C)CCNC(=O)c1nc([N+](=O)[O-])cn1C`, the TGI in the assay on SNB-19 CNS, with MCF7 breast, in the assay with SK-MEL-28 melanoma, with UACC-62 melanoma, in the assay with SF-539 CNS and in the assay on OVCAR-4 ovarian was more than 100 µM each time. The TGI with HCT-15 colon, in the assay on SN12C renal, in the assay with U251 CNS and in the assay with OVCAR-8 ovarian was more than 100 µM each time.

(Values after PubChem BioAssay (NCI).)
